Series [1] can be described thus: Stability in an aqueous solution of hydrochloric acid, half life. The class given is physicochemical. To be noted: 37° C., 50 μM complex, in the dark. How it is done:
Stability of each of the thus obtained complexes in an aqueous solution of hydrochloric acid at 37° C. is shown below in terms of its half life.
The measurement was carried out at a complex concentration of 50 μM at 37° C. in the dark.

Series [2] can be described thus: In vitro reduction by an ascorbic acid salt, half life. The class given is physicochemical. To be noted: 50 μM complex, pH 7.5 (50 mM HEPES-NaOH), 37° C., dark; for Half life (reduction), 5 mM: 5 mM ascorbic acid salt; for Half life (reduction), 100 mM: 100 mM ascorbic acid salt. How it is done:
Test results of the in vitro reduction of the thus obtained complexes by an ascorbic acid salt are shown below in terms of half life.
The measurement was carried out at a complex concentration of 50 μM, pH 7.5 (50 mM HEPES-NaOH buffer), at 37° C. in the dark.

In series [3] the test system is L 1210. The class given is in vivo, CDF1 mouse. To be noted: days 1, 5 and 9; for T/C %: 125 or more judged effective. Here is the method:
ip: On the day 0, L 1210 (10^5 cells/mouse) was transplanted into the abdominal cavity of each CDF1 mouse, and each of the platinum complexes was intraperitoneally administered on the day 1, day 5 and day 9 (Q04D×03). Using 5 animals in one group, T/C % (T: treated, C: control) is calculated from survived days. A T/C % value of 125 or more was judged effective. The number of survived (or tumor bearing) animals is shown as n/5. A total of 10 mice were used in the control.
Carcinostatic effect ip--ip, L 1210, three administrations on days 1, 5 and 9
L 1210 (10^5 cells/mouse), one group=5 CDF1 mice, ip administration on the days 1, 5 and 9.

Series [4] has as its system L 1210. Kind of series: (Oral) carcinostatic effect L 1210, ip-po. It counts as in vivo, CDF1 mouse. The note with it: Q02D×05, suspension in olive oil, 140% or more judged effective. How it is done:
po: On the day 0, L 1210 (10^5 cells/mouse) was transplanted into the abdominal cavity of each CDF1 mouse, and each of the platinum complexes was orally administered on the day 1, day 3, day 5, day 7 and day 9 (Q02D×05), or on the day 1 to day 5 (Q01D×05). The oral administration was carried out with a 10, 7.5 or 5 times higher dose than the optimum amount of each platinum complex by ip (T/C % of ip; 100 mg/kg, 75 mg/kg or 50 mg/kg, respectively). A value of 140% or more was judged effective.
(Oral) carcinostatic effect L 1210, ip-po, every two days Q02D×05
L 1210 (10^5 cells/mouse); one group=5 CDF1 mice; Suspension in olive oil was administered into the stomach through a catheter.

Series [5] in a line: Behaviour in strongly acidic gastric juice (1 N HCl, pH 0.1). The class given is physicochemical. The note with it: orally administered.
The conditions of series [6]: clinical trial; cited from earlier work.

Structures are written as SMILES. Like-named read-outs stand apart in the source and are kept apart here.

Consider `CCCC(=O)[O-].NC1CCCCC1N.O=C([O-])C(=O)[O-].[Cl-].[Pt+4]` [C4--OHP · Cl, [PtCl(OCOC3 H7) (oxalato) (lR,2R-dach)]], for which the “Half life, 0.05 M HCl” value in series [1] was greater than 50 h. Besides, the “Half life, 1 M HCl” value in series [1] worked out at 6.1 h. Moreover, in series [2], the “Half life (reduction), 5 mM” value is 0.6 h. Moreover, the “Half life (reduction), 100 mM” value in series [2] was less than 6 min. Further, the T/C % in the series on L 1210 [3] (12.5 mg/kg ip) was 130%; in the series on L 1210 [3] (25 mg/kg ip) it was 145%; in the series with L 1210 [3] (50 mg/kg ip) it was 195%; in the series on L 1210 [3] (100 mg/kg ip) it was 63%.

As to `CCCCC(=O)[O-].NC1CCCCC1N.O=C([O-])C(=O)[O-].[Br-].[Pt+4]` [C5--OHP · Br, t,t,c,c-[PtBr(OCOC4 H9)(ox)(1R,2R-dach)]], in the series on L 1210 [3] (25 mg/kg ip), the “number of survived (or tumor bearing) animals (n/5)” value (“number of survived” for short) is 4/5. Besides, the T/C % in the series with L 1210 [3] (25 mg/kg ip) is 395%; in the series with L 1210 [3] (50 mg/kg ip), 107%; in the series with L 1210 [4] (5 mg/kg po), 160%; in the series on L 1210 [4] (10 mg/kg po), 163%; with L 1210 [4] (15 mg/kg po), 73%.

In the case of `CCCCC(=O)[O-].NC1CCCCC1N.O=C([O-])C(=O)[O-].[Cl-].[Pt+4]` [C5--OHP · Cl, t,t,c,c-[PtCl(OCOC4 H9)(ox)(1R,2R-dach)]], the “Half life, 0.05 M HCl” value in series [1] is greater than 50 h. Besides, the “Half life, 1 M HCl” value in series [1] was 7.4 h. Besides, the “Half life (reduction), 5 mM” value in series [2] was determined as 0.8 h. Moreover, in series [2], the “Half life (reduction), 100 mM” value was less than 6 min. Besides, the T/C % in the series with L 1210 [3] (25 mg/kg ip) stood at 168%; in the series with L 1210 [3] (50 mg/kg ip), 283%; with L 1210 [3] (100 mg/kg ip), 88%; with L 1210 [4] (2.5 mg/kg po), 140%; in the series with L 1210 [4] (5 mg/kg po), 214%; in the series with L 1210 [4] (10 mg/kg po), 143%. Further, in the series with L 1210 [4] (15 mg/kg po), the T/C % amounted to 60%. For the same compound, the “number of survived” value with L 1210 [3] (50 mg/kg ip) is 4/5.

Turning to `CCCCCC(=O)[O-].NC1CCCCC1N.O=C([O-])C(=O)[O-].[Br-].[Pt+4]` [C6--OHP · Br], the “number of survived” value in the series on L 1210 [3] (25 mg/kg ip) was 4/5. Besides, the T/C % with L 1210 [3] (25 mg/kg ip) came to 373%; in the series on L 1210 [3] (50 mg/kg ip), 96%; with L 1210 [3] (100 mg/kg ip) it was 69%; with L 1210 [4] (5 mg/kg po) it was 173%; with L 1210 [4] (10 mg/kg po), 180%; with L 1210 [4] (15 mg/kg po) it was 88%.

As to `CCCCCC(=O)[O-].NC1CCCCC1N.O=C([O-])C(=O)[O-].[Cl-].[Pt+4]` [C6--OHP · Cl, [PtCl (OCOC5 H11) (oxalato) (1R,2R-dach)]], the “Half life, 0.05 M HCl” value in series [1] was “N.D. (significant decrease in concentration was not observed)”. Also, the “Half life, 1 M HCl” value in series [1] was 8.9 h. Moreover, the “Half life (reduction), 5 mM” value in series [2] was 1.2 h. Further, in series [2], the “Half life (reduction), 100 mM” value is less than 6 min. In addition, the T/C % in the series with L 1210 [3] (25 mg/kg ip) is given as 173%; with L 1210 [3] (50 mg/kg ip), 280%; with L 1210 [3] (100 mg/kg ip) it was 80%; in the series with L 1210 [4] (2.5 mg/kg po), 143%; in the series on L 1210 [4] (5 mg/kg po), 191%; in the series with L 1210 [4] (10 mg/kg po), 168%. Also, the T/C % in the series on L 1210 [4] (15 mg/kg po) was found to be 98%. Moreover, the “number of survived” value in the series with L 1210 [3] (50 mg/kg ip) is 1/5.

As to `CCCCCCC(=O)[O-].NC1CCCCC1N.O=C([O-])C(=O)[O-].[Cl-].[Pt+4]` [C7--OHP · Cl, [PtCl(OCOC6 H13) (oxalato) (1R,2R-dach)]], the “Half life, 0.05 M HCl” value in series [1] is “N.D. (significant decrease in concentration was not observed)”. Moreover, the “Half life, 1 M HCl” value in series [1] was determined as 11.3 h. In addition, the “Half life (reduction), 5 mM” value in series [2] turned out to be 1.6 h. In addition, the “Half life (reduction), 100 mM” value in series [2] was less than 6 min. For the same compound, the T/C % in the series with L 1210 [3] (12.5 mg/kg ip) is listed as 122%; in the series with L 1210 [3] (25 mg/kg ip), 137%; in the series on L 1210 [3] (50 mg/kg ip), 176%; in the series on L 1210 [4] (2.5 mg/kg po) it was 117%; in the series with L 1210 [4] (5 mg/kg po) it was 129%; in the series on L 1210 [4] (10 mg/kg po) it was 151%.

Turning to `CCCC(=O)[O][Pt]12([O]C(=O)CCC)([NH]C3CCCCC3[NH]1)[O]C(=O)C(=O)[O]2` [Complex C4-OHP, t,c,c-[Pt (OCOC3 H7)2 (ox) (1R,2R-dach)]], the “one carboxylic acid substituted by Cl” value in series [5] was “gradually substituted by Cl”.

Take `CCCCC(=O)O.CCCCC(=O)O.N[C@@H]1CCCC[C@H]1N.O=C(O)C(=O)O.[Pt]` [Complex C5-OHP, t,c,c-[Pt (OCOC4 H9)2 (ox) (1R,2R-dach)]]: in series [5], the “one carboxylic acid substituted by Cl” value is “gradually substituted by Cl”.

For `CCCCCC(=O)[O-].CCCCCC(=O)[O-].NC1CCCCC1N.O=C([O-])C(=O)[O-].[Pt+4]` [Complex C6-ORP, t,c,c-[Pt (OCOC5 H11)2 (ox) (1R,2R-dach)]], the “one carboxylic acid substituted by Cl” value in series [5] is “gradually substituted by Cl”.

For the compound `N[C@@H]1CCCC[C@H]1N.[Cl][Pt+2]([Cl])([Cl])[Cl]` [tetraplatin], in series [6], the “clinical development / side effects” value is given as “clinical development has been suspended due to the side effects, such as toxicity”.

These data come from patent US6008395A, “Platinum (IV) complex, production process thereof and carcinostatic agent containing the same” (priority 1995, dated 1999).
